What all share (assay type): cell-based
The subject of one test is INF-γ. Description: Cytokine assay: INF-γ production by human PBMC stimulated with PHA. Conditions: IC50 class, read-out: IFN-gamma Inhib. As for the experimental part:
(§1) Cytokine Assay: Analysis of Proliferation of and Cytokine Production by Human PBMC Stimulated with PHA
(§2) Peripheral blood mononuclear cells (PBMC) from healthy human donors were purified using Accuspin™ System-Histopaque-1077 (Sigma) according to the protocol recommended by the manufacturer. Purified PBMC were then washed twice with phosphate-buffered saline (PBS) and resuspended in RPMI1640 culture medium supplemented with 10% dialyzed heat inactivated fetal calf serum, 1.5 mM L-glutamine, 100 U penicillin/ml, and […] (all from PAN Biotech, Aidenbach, Germany). For stimulation, PBMC were seeded at 1×10^5 cells/well, activated with 2 μg/ml phytohaemagglutinin (PHA, Sigma) and incubated with the test compounds for 48 hours. IL-17A, IL-17F and INF-γ were then determined in the culture supernatant using a Luminex BioPlex system, following the manufacturer's instructions (BioRad, Munich, Germany). For screening, compounds were used at 10, 1, 0.1 and 0.01 μM. To determine the IC50, compounds were titrated semilogarithmically.
(§3) Cytokines were determined in the aforementioned culture supernatant using the following methods: IL-17A was measured using the human homodimer IL-17A ELISA Ready Set Go Kit from eBioscience (Frankfurt, Germany); IL-17F using the human IL-17F ELI-Pair from Hölzel DiagnosticaGmBH (Köln, Germany); and IFN-γ using the OptEIA human IFN-g ELISA from BD Bioscience (Heidelberg, Germany), all following the manufacturer's instructions.

The next test concerns IL-17F. As to the kind of experiment: Cytokine assay: IL-17F production by human PBMC stimulated with PHA. Conditions: IC50 class, read-out: IL-17F Inhib. How it is done:
as §1, §2, §3

Another test relates to IL-17A. Description: Cytokine assay: IL-17A production by human PBMC stimulated with PHA. Conditions: IC50 class, read-out: IL-17A Inhib. How it is done:
as §1, §2, §3

SMILES strings stand for the structures. Read-outs that look alike come from different tables or passages of the source.

Regarding `C=CCCC(O)(CC1CC1)c1c(-c2c(F)cccc2Cl)noc1-c1cnn(CC(C)(C)O)c1C(F)(F)F` (racemic) [Example 38, 2-[3-(2-chloro-6-fluorophenyl)-5-[1-(2-hydroxy-2-methylpropyl)-5-(trifluoromethyl)-1H-pyrazol-4-yl]-1,2-oxazol-4-yl]-1-cyclopropylhex-5-en-2-ol], the IC50 was at least 5000 nM in the test with INF-γ (Homo sapiens, PBMC); at least 5000 nM in the test with IL-17F (Homo sapiens, PBMC); 500 to 5000 nM in the test on IL-17A (Homo sapiens, PBMC).
As for `CCOC(=O)c1c(-c2c(F)cccc2Cl)noc1-c1cnn([C@H]2C[C@@](C)(O)C2)c1C(F)(F)F` [Example 11, ethyl 3-(2-chloro-6-fluorophenyl)-5-[1-(3-hydroxy-3-methylcyclobutyl)-5-(trifluoromethyl)-1H-pyrazol-4-yl]-1,2-oxazole-4-carboxylate], the IC50 with IL-17A is below 50 nM.
Regarding `COC(=O)c1c(-c2ccccc2Cl)noc1-c1cnn([C@H]2C[C@](C)(O)C2)c1C` [Example 17, methyl 3-(2-chlorophenyl)-5-(1-(3-hydroxy-3-methylcyclobutyl)-5-methyl-1H-pyrazol-4-yl)isoxazole-4-carboxylate], the IC50 in the test on INF-γ, in the test on IL-17F and in the test on IL-17A was 500 to 5000 nM each time.
On to `COC(=O)c1c(-c2cccnc2OC)noc1-c1cnn(C[C@@H](C)O)c1C(F)(F)F` [Example 21, methyl (R)-5-(1-(2-hydroxypropyl)-5-(trifluoromethyl)-1H-pyrazol-4-yl)-3-(2-methoxypyridin-3-yl)isoxazole-4-carboxylate], for which the IC50 in the test with INF-γ (Homo sapiens, PBMC) was in the range of 500 to 5000 nM; with IL-17F (Homo sapiens, PBMC), 500 to 5000 nM; with IL-17A (Homo sapiens, PBMC) it was 500 to 5000 nM.
As for `COC(=O)c1c(-c2ccccc2Cl)noc1-c1cnn(C[C@H](C)O)c1C(F)(F)F` [Example 22, methyl (S)-3-(2-chlorophenyl)-5-(1-(2-hydroxypropyl)-5-(trifluoromethyl)-1H-pyrazol-4-yl)isoxazole-4-carboxylate], the IC50 in the test on INF-γ (Homo sapiens, PBMC) was below 50 nM; in the test on IL-17F (Homo sapiens, PBMC), 50 to 500 nM; in the test on IL-17A (Homo sapiens, PBMC) it was 50 to 500 nM.
On to `COC(=O)c1c(-c2ccccc2Cl)noc1-c1cnn(C[C@H](C)O)c1C` [Example 24, methyl (S)-3-(2-chlorophenyl)-5-(1-(2-hydroxypropyl)-5-methyl-1H-pyrazol-4-yl)isoxazole-4-carboxylate], for which the IC50 was 50 to 500 nM with INF-γ (Homo sapiens, PBMC); 50 to 500 nM in the test with IL-17F (Homo sapiens, PBMC); 500 to 5000 nM in the test with IL-17A (Homo sapiens, PBMC).
As for `COC(=O)c1c(-c2c(F)cccc2Cl)noc1-c1cnn(C2CC(O)C2)c1C(F)(F)F` (stereo not drawn) [Example 28, methyl 3-(2-chloro-6-fluorophenyl)-5-(1-(3-hydroxycyclobutyl)-5-(trifluoromethyl)-1H-pyrazol-4-yl)isoxazole-4-carboxylate], the IC50 with INF-γ (Homo sapiens, PBMC) was 500 to 5000 nM; in the test on IL-17F (Homo sapiens, PBMC) it was 500 to 5000 nM; with IL-17A (Homo sapiens, PBMC), 500 to 5000 nM.
Take `COC[C@]1(O)C[C@@H](n2ncc(-c3onc(-c4ccccc4Cl)c3C(=O)OC)c2C(F)(F)F)C1` [Example 29, methyl 3-(2-chlorophenyl)-5-(1-(3-hydroxy-3-(methoxymethyl)cyclobutyl)-5-(trifluoromethyl)-1H-pyrazol-4-yl)isoxazole-4-carboxylate]: the IC50 in the test on INF-γ (Homo sapiens, PBMC) is 50 to 500 nM; in the test on IL-17F (Homo sapiens, PBMC) it was 500 to 5000 nM; in the test with IL-17A (Homo sapiens, PBMC), 500 to 5000 nM.
`Cc1nnc(-c2c(-c3c(F)cccc3Cl)noc2-c2cnn(CC(C)(C)O)c2C(F)(F)F)o1` [Example 30, 1-(4-(3-(2-chloro-6-fluorophenyl)-4-(5-methyl-1,3,4-oxadiazol-2-yl)isoxazol-5-yl)-5-(trifluoromethyl)-1H-pyrazol-1-yl)-2-methylpropan-2-ol]: the IC50 with INF-γ (Homo sapiens, PBMC) is 500 to 5000 nM; with IL-17F (Homo sapiens, PBMC), 500 to 5000 nM; in the test on IL-17A (Homo sapiens, PBMC) it was 50 to 500 nM.
As to `CC(=O)c1c(-c2c(F)cccc2Cl)noc1-c1cnn(CC(C)(C)O)c1C(F)(F)F` [Example 34, 1-(3-(2-chloro-6-fluorophenyl)-5-(1-(2-hydroxy-2-methylpropyl)-5-(trifluoromethyl)-1H-pyrazol-4-yl)-1,2-oxazol-4-yl)ethanone], the IC50 with INF-γ (Homo sapiens, PBMC) was 500 to 5000 nM; in the test with IL-17F (Homo sapiens, PBMC) it was 500 to 5000 nM; with IL-17A (Homo sapiens, PBMC) it was 500 to 5000 nM.
As to `CC(C)(O)Cn1ncc(-c2onc(-c3c(F)cccc3Cl)c2C(=O)CC2CCC2)c1C(F)(F)F` [Example 36, 1-[3-(2-chloro-6-fluorophenyl)-5-[1-(2-hydroxy-2-methylpropyl)-5-(trifluoromethyl)-1H-pyrazol-4-yl]-1,2-oxazol-4-yl]-2-cyclobutylethan-1-one], the IC50 in the test with INF-γ (Homo sapiens, PBMC) fell in the range of 50 to 500 nM; in the test with IL-17F (Homo sapiens, PBMC) it was 50 to 500 nM; in the test with IL-17A (Homo sapiens, PBMC), 500 to 5000 nM.
With `C=CCCC(=O)c1c(-c2c(F)cccc2Cl)noc1-c1cnn(CC(C)(C)O)c1C(F)(F)F` [Example 37, 1-[3-(2-chloro-6-fluorophenyl)-5-[1-(2-hydroxy-2-methylpropyl)-5-(trifluoromethyl)-1H-pyrazol-4-yl]-1,2-oxazol-4-yl]pent-4-en-1-one], the IC50 was in the range of 50 to 500 nM in the test with INF-γ (Homo sapiens, PBMC); 50 to 500 nM in the test with IL-17F (Homo sapiens, PBMC); 50 to 500 nM with IL-17A (Homo sapiens, PBMC).
Consider `COCC(=O)c1c(-c2c(F)cccc2Cl)noc1-c1cnn(CC(C)(C)O)c1C(F)(F)F` [Example 39, 1-[3-(2-chloro-6-fluorophenyl)-5-[1-(2-hydroxy-2-methylpropyl)-5-(trifluoromethyl)-1H-pyrazol-4-yl]-1,2-oxazol-4-yl]-2-methoxyethan-1-one], for which the IC50 in the test with INF-γ (Homo sapiens, PBMC) is 500 to 5000 nM; in the test with IL-17F (Homo sapiens, PBMC), at least 5000 nM; in the test with IL-17A (Homo sapiens, PBMC) it was 500 to 5000 nM.
`COCC(=O)c1c(-c2c(F)cccc2Cl)noc1-c1cnn(C[C@@H](C)O)c1C(F)(F)F` [Example 40, 1-[3-(2-chloro-6-fluorophenyl)-5-{1-[(2R)-2-hydroxypropyl]-5-(trifluoromethyl)-1H-pyrazol-4-yl}-1,2-oxazol-4-yl]-2-methoxyethan-1-one]: the IC50 lay in the range of 500 to 5000 nM in the test with INF-γ (Homo sapiens, PBMC); 500 to 5000 nM in the test with IL-17F (Homo sapiens, PBMC); 500 to 5000 nM with IL-17A (Homo sapiens, PBMC).
Take `CC(C)(O)Cn1ncc(-c2onc(-c3c(F)cccc3Cl)c2C(=O)NC2CCCC2)c1C(F)(F)F` [Example 41, 3-(2-chloro-6-fluorophenyl)-N-cyclopentyl-5-(1-(2-hydroxy-2-methylpropyl)-5-(trifluoromethyl)-1H-pyrazol-4-yl)isoxazole-4-carboxamide]: the IC50 in the test with INF-γ (Homo sapiens, PBMC) is at least 5000 nM; with IL-17F (Homo sapiens, PBMC), at least 5000 nM; with IL-17A (Homo sapiens, PBMC), at least 5000 nM.
`CC(C)(O)Cn1ncc(-c2onc(-c3c(F)cccc3Cl)c2C(=O)NC2CC2)c1C(F)(F)F` [Example 42, 3-(2-chloro-6-fluorophenyl)-N-cyclopropyl-5-(1-(2-hydroxy-2-methylpropyl)-5-(trifluoromethyl)-1H-pyrazol-4-yl)isoxazole-4-carboxamide]: the IC50 in the test with INF-γ (Homo sapiens, PBMC) is at least 5000 nM; in the test on IL-17F (Homo sapiens, PBMC), at least 5000 nM; in the test with IL-17A (Homo sapiens, PBMC), at least 5000 nM.
For `CC(C)(O)Cn1ncc(-c2onc(-c3c(F)cccc3Cl)c2C(=O)NC2CCC2)c1C(F)(F)F` [Example 43, 3-(2-chloro-6-fluorophenyl)-N-cyclobutyl-5-(1-(2-hydroxy-2-methylpropyl)-5-(trifluoromethyl)-1H-pyrazol-4-yl)isoxazole-4-carboxamide], the IC50 in the test on INF-γ (Homo sapiens, PBMC) was 500 to 5000 nM; with IL-17F (Homo sapiens, PBMC), 500 to 5000 nM; in the test on IL-17A (Homo sapiens, PBMC), 500 to 5000 nM.
As to `C[C@@H](O)Cn1ncc(-c2onc(-c3c(F)cccc3Cl)c2C(=O)NC2CC2)c1C(F)(F)F` [Example 45, 3-(2-chloro-6-fluorophenyl)-N-cyclopropyl-5-(1-((2R)-2-hydroxypropyl)-5-(trifluoromethyl)-1H-pyrazol-4-yl)isoxazole-4-carboxamide], the IC50 in the test on INF-γ (Homo sapiens, PBMC) is 500 to 5000 nM; with IL-17F (Homo sapiens, PBMC), 500 to 5000 nM; with IL-17A (Homo sapiens, PBMC) it was 500 to 5000 nM.
In the case of `C[C@@H](O)Cn1ncc(-c2onc(-c3c(F)cccc3Cl)c2C(=O)NC2CCC2)c1C(F)(F)F` [Example 46, 3-(2-chloro-6-fluorophenyl)-N-cyclobutyl-5-(1-((2R)-2-hydroxypropyl)-5-(trifluoromethyl)-1H-pyrazol-4-yl)isoxazole-4-carboxamide], the IC50 was 50 to 500 nM in the test with INF-γ (Homo sapiens, PBMC); 50 to 500 nM in the test on IL-17F (Homo sapiens, PBMC); 500 to 5000 nM with IL-17A (Homo sapiens, PBMC).
As to `Cc1c(-c2onc(-c3c(F)cccc3Cl)c2C(=O)OC2CC2)cnn1[C@H]1C[C@@](C)(O)C1` [Example 62, cyclopropyl 3-(2-chloro-6-fluorophenyl)-5-{5-methyl-1-[3-hydroxy-3-methylcyclobutyl]-1H-pyrazol-4-yl}-1,2-oxazole-4-carboxylate], the IC50 in the test with IL-17A is below 50 nM.
`COCc1c(-c2c(F)cccc2Cl)noc1-c1cnn([C@H]2C[C@@](C)(O)C2)c1C` [Example 70, 3-{4-[3-(2-chloro-6-fluorophenyl)-4-(methoxymethyl)-1,2-oxazol-5-yl]-5-methyl-1H-pyrazol-1-yl}-1-methylcyclobutan-1-ol]: the IC50 was in the range of 500 to 5000 nM in the test with INF-γ (Homo sapiens, PBMC) and 500 to 5000 nM with IL-17F (Homo sapiens, PBMC).
`COCc1c(-c2c(F)cccc2Cl)noc1-c1cnn([C@H]2C[C@](C)(O)C2)c1C` [Example 71, 3-{4-[3-(2-chloro-6-fluorophenyl)-4-(methoxymethyl)-1,2-oxazol-5-yl]-5-methyl-1H-pyrazol-1-yl}-1-methylcyclobutan-1-ol]: the IC50 with INF-γ (Homo sapiens, PBMC) fell in the range of 500 to 5000 nM; in the test with IL-17F (Homo sapiens, PBMC), 500 to 5000 nM.
